# Source: patent US6914045B2, “Glycopeptide antibiotics” (Wyeth Holdings Corporation, priority 2001, dated 2005)
# Key:
# Test in all cases: in vitro antibacterial evaluation, MIC by broth dilution
# Type in all cases: cell-based
# [1] = test system: Enterococcus sp.; details: broth dilution, 18 hours at 35° C.
# Procedure, shortened: (§1)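 MIC = lowest antibiotic concentration preventing visible growth; inoculum 5×10^5 CFU/mL; drug range 64-0.06 μg/mL; Muller-Hinton II […]; NCCLS M7-A2 guidance.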
# [2] = test system: Escherichia coli
# Procedure, shortened: as §1
# [3] = test system: Staphylococcus sp.; details: broth dilution, 18 hours at 35° C.; for MIC Staphylococcus aureus (GC 1131): strain GC 1131
# Procedure, shortened: as §1
# [4] = test system: Streptococcus sp.; details: broth dilution, 18 hours at 35° C.
# Procedure, shortened: as §1
compound,measurement,setting,value
CC(c1ccccc1)C1NC(=O)CNC(=O)C(CO)NC(=O)C(C(O)C2CNC(=N)N2C2OC(CO)C(O)C(O)C2O)NC(=O)C(C(O)C2CNC(=N)N2)NC(=O)C(Cc2ccc(OC3OC(CO)C(OC4OC5COC(c6ccc7c(c6)OCCO7)OC5C(O)C4O)C(O)C3O)cc2)NC1=O (stereo not drawn) [Example 149],MIC Enterococcus avium (GC 4558),[1]; Enterococcus avium (GC 4558),8 µg/mL
same,MIC Enterococcus faecalis (ATCC 29212),[1]; Enterococcus faecalis (ATCC 29212),8 µg/mL
same,MIC Enterococcus faecalis (GC 2242),[1]; Enterococcus faecalis (GC 2242),8 µg/mL
same,MIC Enterococcus faecalis (GC 2691),[1]; Enterococcus faecalis (GC 2691),8 µg/mL
same,MIC Enterococcus faecalis (GC 3059),[1]; Enterococcus faecalis (GC 3059),8 µg/mL
same,MIC Enterococcus faecalis (GC 4552),[1]; Enterococcus faecalis (GC 4552),8 µg/mL
same,MIC Enterococcus faecalis (GC 4553),[1]; Enterococcus faecalis (GC 4553),8 µg/mL
same,MIC Enterococcus faecalis (GC 4554),[1]; Enterococcus faecalis (GC 4554),8 µg/mL
same,MIC Enterococcus faecalis (GC 6189),[1]; Enterococcus faecalis (GC 6189),8 µg/mL
same,MIC Enterococcus faecium (GC 2243),[1]; Enterococcus faecium (GC 2243),8 µg/mL
same,MIC Enterococcus faecium (GC 4556),[1]; Enterococcus faecium (GC 4556),8 µg/mL
same,MIC Enterococcus faecium (GC 4557),[1]; Enterococcus faecium (GC 4557),2 µg/mL
same,MIC Enterococcus faecalis (ATCC 29212),[1]; strain ATCC 29212,8 µg/mL
same,MIC Enterococcus faecalis (GC 2242),[1]; strain GC 2242,8 µg/mL
same,MIC Enterococcus faecium (GC 2243),[1]; strain GC 2243,8 µg/mL
same,MIC Enterococcus faecalis (GC 2691),[1]; strain GC 2691,8 µg/mL
same,MIC Enterococcus faecalis (GC 3059),[1]; strain GC 3059,8 µg/mL
same,MIC Enterococcus faecalis (GC 4552),[1]; strain GC 4552,8 µg/mL
same,MIC Enterococcus faecalis (GC 4553),[1]; strain GC 4553,8 µg/mL
same,MIC Enterococcus faecalis (GC 4554),[1]; strain GC 4554,8 µg/mL
same,MIC Enterococcus faecium (GC 4556),[1]; strain GC 4556,8 µg/mL
same,MIC Enterococcus faecium (GC 4557),[1]; strain GC 4557,2 µg/mL
same,MIC Enterococcus avium (GC 4558),[1]; strain GC 4558,8 µg/mL
same,MIC Enterococcus faecalis (GC 6189),[1]; strain GC 6189,8 µg/mL
same,MIC Escherichia coli (ATCC 25922),"[2]; strain ATCC 25922, 18 hours at 35° C.",>64 µg/mL
same,MIC Escherichia coli (GC 4559),"[2]; strain GC 4559, 18 hours at 35° C.",64 µg/mL
same,MIC Escherichia coli (GC 4560),"[2]; strain GC 4560, 18 hours at 35° C.",<0.5 µg/mL
same,MIC Staphylococcus aureus (GC 1131),[3]; inoculum 5×10^5 CFU/mL,2 µg/mL
same,MIC Staphylococcus aureus (ATCC 29213),[3]; strain ATCC 29213,2 µg/mL
same,MIC Staphylococcus aureus (GC 1131),[3],2 µg/mL
same,MIC Staphylococcus aureus (GC 3051),[3]; strain GC 3051,2 µg/mL
same,MIC Staphylococcus aureus (GC 3053),[3]; strain GC 3053,4 µg/mL
same,MIC Staphylococcus aureus (GC 4541),[3]; strain GC 4541,2 µg/mL
same,MIC Staphylococcus aureus (GC 4542),[3]; strain GC 4542,2 µg/mL
same,MIC Staphylococcus aureus-SMITH (GC 4543),[3]; strain GC 4543,2 µg/mL
same,MIC Staphylococcus aureus (GC 4544),[3]; strain GC 4544,2 µg/mL
same,MIC Staphylococcus aureus (GC 4545),[3]; strain GC 4545,2 µg/mL
same,MIC Staphylococcus haemolyticus (GC 4546),[3]; strain GC 4546,1 µg/mL
same,MIC Coagulase Negative Staphylococcus (GC 4547),[3]; strain GC 4547,1 µg/mL
same,MIC Coagulase Negative Staphylococcus (GC 4548),[3]; strain GC 4548,1 µg/mL
same,MIC Coagulase Negative Staphylococcus (GC 4549),[3]; strain GC 4549,1 µg/mL
same,MIC Coagulase Negative Staphylococcus (GC 4551),[3]; strain GC 4551,1 µg/mL
same,MIC Coagulase Negative Staphylococcus (GC 6257),[3]; strain GC 6257,1 µg/mL
same,MIC Staphylococcus aureus-SMITH (GC 4543),[3]; strain SMITH GC 4543,2 µg/mL
same,MIC Streptococcus agalactiae (GC 4564),[4]; Streptococcus agalactiae (GC 4564),1 µg/mL
same,MIC Streptococcus pneumoniae (ATCC 6301),[4]; Streptococcus pneumoniae (ATCC 6301),<0.5 µg/mL
same,MIC Streptococcus pneumoniae (GC 1894),[4]; Streptococcus pneumoniae (GC 1894),<0.5 µg/mL
same,MIC Streptococcus pneumoniae (GC 4565),[4]; Streptococcus pneumoniae (GC 4565),2 µg/mL
same,MIC Streptococcus pyogenes (GC 4563),[4]; Streptococcus pyogenes (GC 4563),<0.5 µg/mL
same,MIC Streptococcus pneumoniae (ATCC 6301),[4]; strain ATCC 6301,<0.5 µg/mL
same,MIC Streptococcus pneumoniae (GC 1894),[4]; strain GC 1894,<0.5 µg/mL
same,MIC Streptococcus pyogenes (GC 4563),[4]; strain GC 4563,<0.5 µg/mL
same,MIC Streptococcus agalactiae (GC 4564),[4]; strain GC 4564,1 µg/mL
same,MIC Streptococcus pneumoniae (GC 4565),[4]; strain GC 4565,2 µg/mL
